# Measurements taken from ChEMBL document CHEMBL1139108, “New thiopyrazolo[3,4-d]pyrimidine derivatives as anti-mycobacterial agents” (Bioorg Med Chem Lett, 2007).
# Test system: Mycobacterium tuberculosis
# Experiment: Antimycobacterial activity against Mycobacterium tuberculosis H37Rv
# Format: functional
# Details: not given
row,SMILES,MIC [µg/mL]
1,C=CCn1ncc2c(SCc3ccncc3)ncnc21,125
2,C=CCn1ncc2c(SCc3cccnc3)ncnc21,250
3,N#CCSc1ncnc2c1cnn2Cc1ccc(Cl)cc1,125
4,OCCSc1ncnc2c1cnn2Cc1ccccc1,63
5,OCCn1ncc2c(SCc3ccccc3)ncnc21,125
6,Clc1ccc(CSc2ncnc3[nH]ncc23)cc1,250
7,C#CCSc1ncnc2c1cnn2CC=C,63
8,Clc1ccccc1CSc1ncnc2[nH]ncc12,250
9,C=CCn1ncc2c(SCc3ccccc3Cl)ncnc21,32
10,Clc1ccccc1CSc1ncnc2c1cnn2Cc1ccccc1,250
11,C=CCSc1ncnc2c1cnn2Cc1ccc(Cl)cc1,16
12,c1nc(SCC2CC2)c2cn[nH]c2n1,125
13,N#CCSc1ncnc2[nH]ncc12,63
14,c1ccc(CSc2ncnc3c2cnn3Cc2ccccc2)cc1,16
15,CCCn1ncc2c(SCc3ccccc3)ncnc21,32
16,Clc1ccccc1Cn1ncc2c(SCc3ccccc3)ncnc21,16
17,c1ccc(Cn2ncc3c(SCc4ccncc4)ncnc32)cc1,32
18,C=CCCSc1ncnc2c1cnn2Cc1ccccc1,16
19,N#CCSc1ncnc2c1cnn2CC#N,8
20,C=CCCSc1ncnc2c1cnn2CC#N,63
21,N#CCSc1ncnc2c1cnn2Cc1cccnc1,63
22,C=CCSc1ncnc2c1cnn2CC=C,125
23,N#CCn1ncc2c(SCc3ccccc3)ncnc21,32

row,SMILES,MIC [µg/mL]
1,C#CCSc1ncnc2c1cnn2CC#C,63
2,C=CCn1ncc2c(SCC3CC3)ncnc21,125
3,c1ccc(Cn2ncc3c(SCC4CC4)ncnc32)cc1,16
4,C=CCCSc1ncnc2[nH]ncc12,125
5,C=CCSc1ncnc2c1cnn2Cc1ccccc1,32
6,c1ccc(CSc2ncnc3[nH]ncc23)cc1,250
7,Clc1ccc(CSc2ncnc3c2cnn3Cc2ccccc2)cc1,32
8,C=CCSc1ncnc2c1cnn2CCO,250
9,c1ccc(CSc2ncnc3c2cnn3Cc2ccncc2)cc1,16
10,C=CCSc1ncnc2c1cnn2CC1CC1,32
11,C=CCSc1ncnc2c1cnn2CC#N,16
12,C=CCSc1ncnc2c1cnn2Cc1ccncc1,63
13,c1cncc(CSc2ncnc3[nH]ncc23)c1,250
14,C=CCn1ncc2c(SCC#N)ncnc21,32
15,N#CCSc1ncnc2c1cnn2Cc1ccccc1,32
16,Clc1ccc(CSc2ncnc3c2cnn3Cc2ccc(Cl)cc2)cc1,63
17,Clc1ccc(CSc2ncnc3c2cnn3Cc2cccnc2)cc1,0.5
18,CCCSc1ncnc2[nH]ncc12,125
19,CCCSc1ncnc2c1cnn2Cc1ccccc1,16
20,C=CCn1ncc2c(SCCO)ncnc21,250
21,C=CCSc1ncnc2c1cnn2Cc1cccnc1,63
22,C#CCSc1ncnc2c1cnn2Cc1ccccc1,63
23,C=CCCn1ncc2c(SCc3ccccc3)ncnc21,16

row,SMILES,MIC [µg/mL]
1,C#CCn1ncc2c(SCc3ccccc3)ncnc21,32
2,N#CCn1ncc2c(SCc3ccc(Cl)cc3)ncnc21,8
3,C=CCCSc1ncnc2c1cnn2Cc1ccc(Cl)cc1,125
4,C=CCn1ncc2c(SCCC)ncnc21,63
5,OCCSc1ncnc2[nH]ncc12,250
6,c1ccc(Cn2ncc3c(SCc4cccnc4)ncnc32)cc1,32
7,C=CCCn1ncc2c(SCC=C)ncnc21,63
8,C=CCSc1ncnc2c1cnn2Cc1ccccc1Cl,63
9,c1cc(CSc2ncnc3[nH]ncc23)ccn1,250
10,Clc1ccc(Cn2ncc3c(SCc4ccccc4)ncnc32)cc1,16
11,C=CCCSc1ncnc2c1cnn2CC=C,32
12,C=CCSc1ncnc2c1cnn2CCC,125
13,C=CCCSc1ncnc2c1cnn2Cc1cccnc1,32
14,C=CCSc1ncnc2[nH]ncc12,250
15,c1ccc(CSc2ncnc3c2cnn3Cc2cccnc2)cc1,8
16,c1ccc(CSc2ncnc3c2cnn3CC2CC2)cc1,250
17,C=CCn1ncc2c(SCc3ccc(Cl)cc3)ncnc21,8
18,C#CCn1ncc2c(SCC=C)ncnc21,32
19,C=CCn1ncc2c(SCc3ccccc3)ncnc21,32
20,CC[C@@H](CO)NCCN[C@@H](CC)CO [ETHAMBUTOL],2.5
21,NNC(=O)c1ccncc1 [ISONIAZID],0.25
22,CO[C@H]1/C=C/O[C@@]2(C)Oc3c(C)c(O)c4c(O)c(c(/C=N/N5CCN(C)CC5)c(O)c4c3C2=O)NC(=O)/C(C)=C\C=C\[C@H](C)[C@H](O)[C@@H](C)[C@@H](O)[C@@H](C)[C@H](OC(C)=O)[C@@H]1C [RIFAMPIN],0.016

# Test system: not listed separately
# Experiment: Cytotoxicity against human HepG2 cells
# Format: cell-based
# Details: read-out: TD50 (the source's name)
row,SMILES,CC50 [µg/mL]
1,C=CCn1ncc2c(SCC#N)ncnc21,4
2,Clc1ccc(CSc2ncnc3c2cnn3Cc2cccnc2)cc1,> 40
3,N#CCn1ncc2c(SCc3ccc(Cl)cc3)ncnc21,2
4,c1ccc(CSc2ncnc3c2cnn3Cc2cccnc2)cc1,> 40
5,C=CCn1ncc2c(SCc3ccc(Cl)cc3)ncnc21,> 20
